{"source": "patent US20100151104A1", "about": "“Preservative System For Beverages Based On Combinations Of Trans-Cinnamic Acid, Lauric Arginate, And Dimethyl Dicarbonate” (priority 2008, published 2010)", "assay_type_in_all_cases": "cell-based", "key": {"Zygosaccharomyces bailii": {"test_system": "Zygosaccharomyces bailii", "experiment": "Growth in 10% apple juice beverage with combinations of LAE & cinnamic acid; log (QA/Qa+QB/Qb) calculation", "settings": "for amount of growth (normalized) to control: Cinnamic Acid 0 ppm", "excerpt": "(§1) Trans-cinnamic acid and lauric arginate were combined in the following beverage formulation: [table] […] The analysis of the interaction between lauric arginate and cinnamic acid can be refined through use of a mathematical method developed by Voorspuij and Nass (Arch. Int. pharmacodyn. 59:211 1957) (generally accepted among those practiced in the art.) Herein, the interactions between two active substances can be explored. First the quantity (Qa=Molar Cone) of compound A required for an end point (concentration required to stabilize product for 16 weeks) is established. Similarly, the quantity (Qb =Molar cone) of substance B required to establish the same endpoint is established. Thereafter, mixtures of A & B, in quantities QA & Qs are established that also define endpoints. […] If the sum of the ratios for a mixture of A & Bare=1, then the interaction is considered additive. […] Calculation of log (QA/Qa+QB/Qb) for LAE+trans Cinnamic Acid vs Zygosaccharomyces bailii"}, "[1]": {"test_system": "seven bio-indicator strains (Zygosaccharomyce baili, Brettanomyces species, Saccharomyces cerevisiae, Paecilomyces lilacinus, Zygosaccharomyces bisporus …)", "experiment": "Example 2: growth/no growth of seven bio-indicator strains in 4% apple juice beverage, 16 weeks", "settings": "FIGS. 1a, 1b; stand alone; pH 3.4; 16 weeks at 25° C.", "excerpt": "A single preparation of base beverage was employed to prepare each of five tests and consisted of 4% apple juice, 68 g sucrose/L, 52 g glucose/L, 2 g fructose/L prepared in batch water that was formulated to 90 ppm hardness with calcium chloride and magnesium chloride. […] The total combined quantity of sodium malate and malic acid was near constant, but the ratio of malic acid and malate varied slightly given the presence or absence of lauric arginate or cinnamic acid. Where required, lauric arginate or cinnamic acid was supplemented from separately prepared stock solutions. Each of the five tests employed the same bio-indicator organisms; Growth (+) versus no growth (-) established by visual inspection or spectrophotometrically. […] Y3, Zygosaccharomyce baili, Pepsi isolate 906; C-7UP, Brettanomyces species, Pepsi Isolate; Spore, an ascospore preparation of Saccharomyces cerevisiae 99 a Pepsi Isolate; […], Zygosaccharomyces baili, ATCC 60484; Spores, M7, Paecilomyces lilacinus ATCC 90461; […], Zygosaccharomyces bisporus ATCC 52407; Spores, M4, Talaromvces flavus var. flavus ATCC 10512. Samples were incubated for period of 16 weeks at 25° C. in vessels protective against evaporation."}, "Brettanomyces nardensis": {"test_system": "Brettanomyces nardensis", "experiment": "Growth in 10% apple juice beverage with combinations of LAE & cinnamic acid; log (QA/Qa+QB/Qb) calculation", "settings": "for amount of growth (normalized) to control: Cinnamic Acid 0 ppm", "excerpt": "as §1, with “Brettanomyces […]” for “Zygosaccharomyces bailii”"}, "[2]": {"test_system": "Brettanomyces bruxellensus", "experiment": "Growth in 10% apple juice beverage with combinations of LAE & cinnamic acid; log (QA/Qa+QB/Qb) calculation", "settings": "for amount of growth (normalized) to control: Cinnamic Acid 0 ppm", "excerpt": "as §1, with “Brettanomyces bruzellensus” for “Zygosaccharomyces bailii”"}, "[3]": {"settings": "stand alone, end point = concentration required to stabilize product for 16 weeks"}}}
{"smiles": "CCCCCCCCCCCC(=O)N[C@@H](CCCNC(=N)N)C(=O)OCC.Cl", "note": "[LAE, ethyl-N-lauroyl-L-argniate hydrochloride]", "values": [{"measurement": "QA/Qa + QB/Qb", "setting": "Zygosaccharomyces bailii; QLAE 76, QCA 0", "result": 1.00}, {"measurement": "QLAE/QLAE*", "setting": "Zygosaccharomyces bailii; QLAE 76, QCA 0", "result": 1.00}, {"measurement": "QNaB/QNAB*", "setting": "Zygosaccharomyces bailii; QLAE 76, QCA 0", "result": 0.00}, {"measurement": "log (QA/Qa + QB/Qb)", "setting": "Zygosaccharomyces bailii; QLAE 76, QCA 0", "result": 0.0000}, {"measurement": "amount of growth (normalized) to control", "setting": "Zygosaccharomyces bailii; pH 3.0, LAE 2.5 ppm", "result": 81, "unit": "%"}, {"measurement": "amount of growth (normalized) to control", "setting": "Zygosaccharomyces bailii; pH 3.0, LAE 5 ppm", "result": 88, "unit": "%"}, {"measurement": "amount of growth (normalized) to control", "setting": "Zygosaccharomyces bailii; pH 3.0, LAE 7.5 ppm", "result": 82, "unit": "%"}, {"measurement": "amount of growth (normalized) to control", "setting": "Zygosaccharomyces bailii; pH 3.0, LAE 10 ppm", "result": 79, "unit": "%"}, {"measurement": "amount of growth (normalized) to control", "setting": "Zygosaccharomyces bailii; pH 3.0, LAE 15 ppm", "result": 75, "unit": "%"}, {"measurement": "amount of growth (normalized) to control", "setting": "Zygosaccharomyces bailii; pH 3.5, LAE 2.5 ppm", "result": 95, "unit": "%"}, {"measurement": "amount of growth (normalized) to control", "setting": "Zygosaccharomyces bailii; pH 3.5, LAE 5 ppm", "result": 75, "unit": "%"}, {"measurement": "amount of growth (normalized) to control", "setting": "Zygosaccharomyces bailii; pH 3.5, LAE 7.5 ppm", "result": 75, "unit": "%"}, {"measurement": "amount of growth (normalized) to control", "setting": "Zygosaccharomyces bailii; pH 3.5, LAE 10 ppm", "result": 78, "unit": "%"}, {"measurement": "amount of growth (normalized) to control", "setting": "Zygosaccharomyces bailii; pH 3.5, LAE 15 ppm", "result": 86, "unit": "%"}, {"measurement": "amount of growth (normalized) to control", "setting": "Zygosaccharomyces bailii; pH 4.0, LAE 2.5 ppm", "result": 94, "unit": "%"}, {"measurement": "amount of growth (normalized) to control", "setting": "Zygosaccharomyces bailii; pH 4.0, LAE 5 ppm", "result": 80, "unit": "%"}, {"measurement": "amount of growth (normalized) to control", "setting": "Zygosaccharomyces bailii; pH 4.0, LAE 7.5 ppm", "result": 85, "unit": "%"}, {"measurement": "amount of growth (normalized) to control", "setting": "Zygosaccharomyces bailii; pH 4.0, LAE 10 ppm", "result": 114, "unit": "%"}, {"measurement": "amount of growth (normalized) to control", "setting": "Zygosaccharomyces bailii; pH 4.0, LAE 15 ppm", "result": 124, "unit": "%"}, {"measurement": "QLAE* (quantity of LAE alone required for the end point)", "setting": "Zygosaccharomyces bailii; [3]", "result": "QLAE* 76"}, {"measurement": "concentration required to inhibit all seven bio-indicator strains", "setting": "[1]", "result": 0.16, "unit": "mM"}, {"measurement": "QA/Qa + QB/Qb", "setting": "Brettanomyces nardensis; QLAE 15, QCA 0", "result": 1.00}, {"measurement": "QLAE/QLAE*", "setting": "Brettanomyces nardensis; QLAE 15, QCA 0", "result": 1.00}, {"measurement": "QNaB/QNAB*", "setting": "Brettanomyces nardensis; QLAE 15, QCA 0", "result": 0.00}, {"measurement": "log (QA/Qa + QB/Qb)", "setting": "Brettanomyces nardensis; QLAE 15, QCA 0", "result": 0.0000}, {"measurement": "amount of growth (normalized) to control", "setting": "Brettanomyces nardensis; pH 3.0, LAE 2.5 ppm", "result": 89, "unit": "%"}, {"measurement": "amount of growth (normalized) to control", "setting": "Brettanomyces nardensis; pH 3.0, LAE 5 ppm", "result": 116, "unit": "%"}, {"measurement": "amount of growth (normalized) to control", "setting": "Brettanomyces nardensis; pH 3.0, LAE 7.5 ppm", "result": 90, "unit": "%"}, {"measurement": "amount of growth (normalized) to control", "setting": "Brettanomyces nardensis; pH 3.0, LAE 10 ppm", "result": 99, "unit": "%"}, {"measurement": "amount of growth (normalized) to control", "setting": "Brettanomyces nardensis; pH 3.0, LAE 15 ppm", "result": 0, "unit": "%"}, {"measurement": "amount of growth (normalized) to control", "setting": "Brettanomyces nardensis; pH 3.5, LAE 2.5 ppm", "result": 112, "unit": "%"}, {"measurement": "amount of growth (normalized) to control", "setting": "Brettanomyces nardensis; pH 3.5, LAE 5 ppm", "result": 86, "unit": "%"}, {"measurement": "amount of growth (normalized) to control", "setting": "Brettanomyces nardensis; pH 3.5, LAE 7.5 ppm", "result": 81, "unit": "%"}, {"measurement": "amount of growth (normalized) to control", "setting": "Brettanomyces nardensis; pH 3.5, LAE 10 ppm", "result": 57, "unit": "%"}, {"measurement": "amount of growth (normalized) to control", "setting": "Brettanomyces nardensis; pH 3.5, LAE 15 ppm", "result": 0, "unit": "%"}, {"measurement": "amount of growth (normalized) to control", "setting": "Brettanomyces nardensis; pH 4.0, LAE 2.5 ppm", "result": 109, "unit": "%"}, {"measurement": "amount of growth (normalized) to control", "setting": "Brettanomyces nardensis; pH 4.0, LAE 5 ppm", "result": 104, "unit": "%"}, {"measurement": "amount of growth (normalized) to control", "setting": "Brettanomyces nardensis; pH 4.0, LAE 7.5 ppm", "result": 97, "unit": "%"}, {"measurement": "amount of growth (normalized) to control", "setting": "Brettanomyces nardensis; pH 4.0, LAE 10 ppm", "result": 0, "unit": "%"}, {"measurement": "amount of growth (normalized) to control", "setting": "Brettanomyces nardensis; pH 4.0, LAE 15 ppm", "result": 0, "unit": "%"}, {"measurement": "QLAE* (quantity of LAE alone required for the end point)", "setting": "Brettanomyces nardensis; [3]", "result": "QLAE* 15"}, {"measurement": "amount of growth (normalized) to control", "setting": "[2]; pH 3.0, LAE 2.5 ppm", "result": 97, "unit": "%"}, {"measurement": "amount of growth (normalized) to control", "setting": "[2]; pH 3.0, LAE 5 ppm", "result": 101, "unit": "%"}, {"measurement": "amount of growth (normalized) to control", "setting": "[2]; pH 3.0, LAE 7.5 ppm", "result": 96, "unit": "%"}, {"measurement": "amount of growth (normalized) to control", "setting": "[2]; pH 3.0, LAE 10 ppm", "result": 102, "unit": "%"}, {"measurement": "amount of growth (normalized) to control", "setting": "[2]; pH 3.0, LAE 15 ppm", "result": 94, "unit": "%"}, {"measurement": "amount of growth (normalized) to control", "setting": "[2]; pH 3.5, LAE 2.5 ppm", "result": 96, "unit": "%"}, {"measurement": "amount of growth (normalized) to control", "setting": "[2]; pH 3.5, LAE 5 ppm", "result": 106, "unit": "%"}, {"measurement": "amount of growth (normalized) to control", "setting": "[2]; pH 3.5, LAE 7.5 ppm", "result": 110, "unit": "%"}, {"measurement": "amount of growth (normalized) to control", "setting": "[2]; pH 3.5, LAE 10 ppm", "result": 114, "unit": "%"}, {"measurement": "amount of growth (normalized) to control", "setting": "[2]; pH 3.5, LAE 15 ppm", "result": 118, "unit": "%"}, {"measurement": "amount of growth (normalized) to control", "setting": "[2]; pH 4.0, LAE 2.5 ppm", "result": 115, "unit": "%"}, {"measurement": "amount of growth (normalized) to control", "setting": "[2]; pH 4.0, LAE 5 ppm", "result": 125, "unit": "%"}, {"measurement": "amount of growth (normalized) to control", "setting": "[2]; pH 4.0, LAE 7.5 ppm", "result": 124, "unit": "%"}, {"measurement": "amount of growth (normalized) to control", "setting": "[2]; pH 4.0, LAE 10 ppm", "result": 124, "unit": "%"}, {"measurement": "amount of growth (normalized) to control", "setting": "[2]; pH 4.0, LAE 15 ppm", "result": 131, "unit": "%"}, {"measurement": "QLAE* (quantity of LAE alone required for the end point)", "setting": "[2]; [3]", "result": "QLAE* 30"}]}
